The record followed here is EP1043318A1 (priority 1997, dated 1999).

Structures are written as SMILES.

In this assay the test system is M. tuberculosis 16R. The assay is classed as cell-based. The following applies: strain resistant to control preparations; concentration of the preparation 50.0 g/l (table title); incubated 30 days.
For the molecule `CC[C@@H](CO)NCCN[C@@H](CC)CO` [Ethambutol], the “M. tuberculosis 16R growth” value is “growth”.

As to `NNC(=O)c1ccncc1` [Isoniazid], the “M. tuberculosis 16R growth” value was “growth”.

With `[H]/N=C(/N)N[C@H]1[C@H](O)[C@@H](O)[C@H](O[C@@H]2O[C@@H](C)[C@](O)(C=O)[C@H]2O[C@@H]2O[C@@H](CO)[C@H](O)[C@@H](O)[C@@H]2NC)[C@@H](N/C(N)=N\[H])[C@@H]1O` [Streptomycin], the “M. tuberculosis 16R growth” value is “growth”.

Turning to `O=C1NC(=S)NC(=O)C1C(c1ccc([N+](=O)[O-])cc1)C1C(=O)NC(=S)NC1=O` [X, 5,5'-(p-nitrobenzylidene)bis (2-thiobarbituric) acid], the “M. tuberculosis 16R growth” value was “complete suppression of growth”.
